Structures are written as SMILES. pIC50: −log10 of the molar value. Bounds are passed on as bounds.

Chain of USP1/UAF1 (O94782 whole entry): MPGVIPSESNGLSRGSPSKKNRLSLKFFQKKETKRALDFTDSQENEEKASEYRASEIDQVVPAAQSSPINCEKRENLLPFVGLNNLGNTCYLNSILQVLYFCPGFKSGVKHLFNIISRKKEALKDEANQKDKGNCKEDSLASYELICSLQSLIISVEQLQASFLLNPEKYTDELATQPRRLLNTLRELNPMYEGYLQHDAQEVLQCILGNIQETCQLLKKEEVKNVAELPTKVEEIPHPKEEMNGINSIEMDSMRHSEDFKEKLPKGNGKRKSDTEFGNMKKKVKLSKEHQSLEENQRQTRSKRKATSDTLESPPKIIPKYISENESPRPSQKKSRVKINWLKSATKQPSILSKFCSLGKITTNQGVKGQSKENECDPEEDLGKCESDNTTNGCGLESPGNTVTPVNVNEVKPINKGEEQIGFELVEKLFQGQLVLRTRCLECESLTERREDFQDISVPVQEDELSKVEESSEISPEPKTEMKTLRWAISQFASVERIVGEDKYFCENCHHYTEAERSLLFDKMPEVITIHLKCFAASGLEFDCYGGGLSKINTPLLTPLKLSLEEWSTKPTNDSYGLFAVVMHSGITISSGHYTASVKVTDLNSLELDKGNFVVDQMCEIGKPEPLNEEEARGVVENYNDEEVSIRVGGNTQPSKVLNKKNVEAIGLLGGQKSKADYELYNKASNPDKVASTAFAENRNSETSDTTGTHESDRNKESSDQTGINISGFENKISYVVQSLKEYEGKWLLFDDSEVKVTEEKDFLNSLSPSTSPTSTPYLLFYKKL
Chain of USP1/UAF1 (Q8TAF3 whole entry partner): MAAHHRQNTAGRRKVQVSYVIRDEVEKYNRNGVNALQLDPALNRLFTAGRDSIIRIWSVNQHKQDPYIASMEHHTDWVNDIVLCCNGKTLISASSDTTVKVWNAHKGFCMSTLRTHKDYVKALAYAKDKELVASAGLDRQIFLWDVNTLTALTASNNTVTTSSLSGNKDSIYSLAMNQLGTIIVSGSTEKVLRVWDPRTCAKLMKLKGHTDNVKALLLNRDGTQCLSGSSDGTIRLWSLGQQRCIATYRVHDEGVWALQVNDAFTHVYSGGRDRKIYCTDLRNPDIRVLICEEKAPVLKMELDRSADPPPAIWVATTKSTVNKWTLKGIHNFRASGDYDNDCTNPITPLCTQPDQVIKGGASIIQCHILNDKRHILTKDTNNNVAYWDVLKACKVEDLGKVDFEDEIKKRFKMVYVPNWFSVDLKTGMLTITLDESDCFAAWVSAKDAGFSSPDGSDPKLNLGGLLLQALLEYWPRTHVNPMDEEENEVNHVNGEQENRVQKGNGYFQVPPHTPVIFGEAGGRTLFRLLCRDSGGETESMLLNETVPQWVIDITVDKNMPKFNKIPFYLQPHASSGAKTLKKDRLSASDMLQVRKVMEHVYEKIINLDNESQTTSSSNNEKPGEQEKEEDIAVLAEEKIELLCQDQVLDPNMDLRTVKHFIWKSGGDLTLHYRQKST

The first assay addresses USP1/UAF1 (Homo sapiens, UniProt O94782). The assay can be described thus: USP1/UAF 1 assay (ubiquitin-rhodamine110 fluorometric deubiquitinase assay). The note with it: 1 nM USP1/UAF1, 150 nM Ub-Rho; read-out: Biochemical assay IC50. Type of assay: biochemical. How it is done: Test-1: USP1/UAF 1 Assay:
Deubiquitinase activity of USP1/UAF1 was monitored in a fluorometric assay using ubiquitin-rhodamine110 as substrate. Briefly, enzymatic reactions were conducted in an assay buffer composed of 50 mM HEPES, pH 7.8, 0.5 mM EDTA, 100 mM NaCl, 1 mM TCEP, 0.1 mg/mL BSA, and 0.01% Tween-20 that contained 1 nM USP1/UAF1. Compounds were tested at desired concentrations. The plates were incubated for 15 min to attain equilibrium, and then the enzymatic reaction was initiated by dispensing 150 nM Ub-Rho solution. Fluorescence measurement was performed in a high throughput CCD imager, where kinetic measurements of rhodamine fluorescence were acquired using a 480 nm excitation/540 nm emission filter set. The change in fluorescence intensity over a 5-minute reaction period (typically associated with less than 10% substrate conversion) was normalized against no-inhibitor and no-enzyme controls and the resulting percent inhibition data were fitted to a sigmoidal dose response using a four-parameter Hill equation. Data was be analysed and percent inhibition and/or IC50 for each test compound is calculated accordingly.
Regarding `CC(C)c1ccccc1-c1cc2nccn2c(NCc2ccc(-c3nc(C(F)(F)F)cn3C)cc2)n1` [Example 7, 7-(2-isopropylphenyl)-N-(4-(1-methyl-4-(trifluoromethyl)-1H-imidazol-2-yl)benzyl)imidazo[1,2-c]pyrimidin-5-amine], the pIC50 is 6.00 to 7.00.
In the case of `CC(C)c1ccccc1-c1nc(NCc2ccc(-c3nc(C(F)(F)F)cn3C)cc2)c2[nH]cnc2n1` [Example 15, 2-(2-isopropylphenyl)-N-(4-(1-methyl-4-(trifluoromethyl)-1H-imidazo-2-yl)benzyl)-7H-purin-6-amine], the pIC50 is more than 7.30.
On the same count and under the same terms, the result for `CC(C)c1ccccc1-c1nc2c(c(NCc3ccc(-c4nc(C(F)(F)F)cn4C)cc3)c1C#N)CCC2` [Example 20, 2-(2-isopropylphenyl)-4-((4-(1-methyl-4-(trifluoromethyl)-1H-imidazol-2-yl)benzyl)amino)-6,7-dihydro-5H-cyclopenta[b]pyridine-3-carbonitrile] reads 6.00 to 7.00.

The same assay, now with this note: @1 μM.
Consider `CC(C)c1ccccc1-c1nc(NCc2ccc(-c3nc(C(F)(F)F)cn3C)cc2)c2ncn(C3CCCCO3)c2n1` (stereo not shown) [Example 18, 2-(2-isopropylphenyl)-N-(4-(1-methyl-4-(trifluoromethyl)-1H-imidazol-2-yl)benzyl)-9-(tetrahydro-2H-pyran-2-yl)-9H-purin-6-amine], for which the “Biochemical assay % inhibition @1 μM” value is listed as “B+++”.

Staying with this assay, now noted: read-out: Biochemical assay % inhibition @1 μM.
Turning to `Cn1cc(C(F)(F)F)nc1-c1ccc(CNc2nc(Cl)nc3c2ncn3C2CCCCO2)cc1` (stereo not shown) [Example 17, 2-chloro-N-(4-(1-methyl-4-(trifluoromethyl)-1H-imidazol-2-yl)benzyl)-9-(tetrahydro-2H-pyran-2-yl)-9H-purin-6-amine], the inhibition at 1 µM is more than 75%.
Still for that read-out and setting: the result for `Cc1cccc(-c2nc(NCc3ccc(-c4nc(C(F)(F)F)cn4C)cc3)c3[nH]cnc3n2)c1Cl` [Example 38, 2-(2-chloro-3-methylphenyl)-N-(4-(1-methyl-4-(trifluoromethyl)-1H-imidazol-2-yl)benzyl)-7H-purin-6-amine] reads 50 to 75%.
As for `Cn1cc(C(F)(F)F)nc1-c1ccc(CNc2nc(-c3cc(Cl)cc(Cl)c3)nc3nc[nH]c23)cc1` [Example 39, 2-(3,5-dichlorophenyl)-N-(4-(1-methyl-4-(trifluoromethyl)-1H-imidazol-2-yl)benzyl)-7H-purin-6-amine], the inhibition at 1 µM lay within 50 to 75%.
Regarding `Cn1cc(C(F)(F)F)nc1-c1ccc(CNc2nc(-c3ccc(F)cc3F)nc3nc[nH]c23)cc1` [Example 40, 2-(2,4-difluorophenyl)-N-(4-(1-methyl-4-(trifluoromethyl)-1H-imidazol-2-yl)benzyl)-7H-purin-6-amine], the inhibition at 1 µM lay in the range of 50 to 75%.
The same measure, in the same setting: as for `Cn1cc(C(F)(F)F)nc1-c1ccc(CNc2nc(-c3cc(F)cc(F)c3)nc3nc[nH]c23)cc1` [Example 41, 2-(3,5-difluorophenyl)-N-(4-(1-methyl-4-(trifluoromethyl)-1H-imidazol-2-yl)benzyl)-7H-purin-6-amine], the figure is 50 to 75%.
With `Cn1cc(C(F)(F)F)nc1-c1ccc(CNc2nc(-c3ccc(Cl)cc3Cl)nc3nc[nH]c23)cc1` [Example 42, 2-(2,4-dichlorophenyl)-N-(4-(1-methyl-4-(trifluoromethyl)-1H-imidazol-2-yl)benzyl)-7H-purin-6-amine], the inhibition at 1 µM lay in the range of 50 to 75%.
On the same count and under the same terms, the result for `COc1ccc(-c2nc(NCc3ccc(-c4nc(C(F)(F)F)cn4C)cc3)c3[nH]cnc3n2)c(OC)n1` [Example 43, 2-(2,6-dimethoxypyridin-3-yl)-N-(4-(1-methyl-4-(trifluoromethyl)-1H-imidazol-2-yl)benzyl)-7H-purin-6-amine] reads 50 to 75%; that for `Cn1cc(C(F)(F)F)nc1-c1ccc(CNc2nc(-c3cc(C(F)(F)F)ccc3F)nc3nc[nH]c23)cc1` [Example 44, 2-(2-fluoro-5-(trifluoromethyl)phenyl)-N-(4-(1-methyl-4-(trifluoromethyl)-1H-imidazol-2-yl)benzyl)-7H-purin-6-amine], 50 to 75%.
Turning to `Cn1cc(C(F)(F)F)nc1-c1ccc(CNc2nc(-c3ccccc3C(F)(F)F)nc3nc[nH]c23)cc1` [Example 45, N-(4-(1-methyl-4-(trifluoromethyl)-1H-imidazol-2-yl)benzyl)-2-(2-(trifluoromethyl)phenyl)-7H-purin-6-amine], the inhibition at 1 µM was 50 to 75%.
Same read-out and setting: as for `Cn1cc(C(F)(F)F)nc1-c1ccc(CNc2nc(-c3cccc(OC(F)(F)F)c3)nc3nc[nH]c23)cc1` [Example 46, N-(4-(1-methyl-4-(trifluoromethyl)-1H-imidazol-2-yl)benzyl)-2-(3-(trifluoromethoxy)phenyl)-7H-purin-6-amine], the figure is 50 to 75%.
Take `Cn1cc(C(F)(F)F)nc1-c1ccc(CNc2nc(-c3ccc(OC(F)(F)F)cc3)nc3nc[nH]c23)cc1` [Example 47, N-(4-(1-methyl-4-(trifluoromethyl)-1H-imidazol-2-yl)benzyl)-2-(4-(trifluoromethoxy)phenyl)-7H-purin-6-amine]: the inhibition at 1 µM was 50 to 75%.
Regarding `COc1cccc(-c2nc(NCc3ccc(-c4nc(C(F)(F)F)cn4C)cc3)c3[nH]cnc3n2)c1F` [Example 48, 2-(2-fluoro-3-methoxyphenyl)-N-(4-(1-methyl-4-(trifluoromethyl)-1H-imidazol-2-yl)benzyl)-7H-purin-6-amine], the inhibition at 1 µM is 50 to 75%.
Still for that read-out and setting: as for `Cn1cc(C(F)(F)F)nc1-c1ccc(CNc2nc(-c3ccc(F)c(C#N)c3)nc3nc[nH]c23)cc1` [Example 49, 2-fluoro-5-(6-((4-(1-methyl-4-(trifluoromethyl)-1H-imidazol-2-yl)benzyl)amino)-7H-purin-2-yl)benzonitrile], the figure is 50 to 75%; as for `Cc1cc(C)cc(-c2nc(NCc3ccc(-c4nc(C(F)(F)F)cn4C)cc3)c3[nH]cnc3n2)c1` [Example 50, 2-(3,5-dimethylphenyl)-N-(4-(1-methyl-4-(trifluoromethyl)-1H-imidazol-2-yl)benzyl)-7H-purin-6-amine], 50 to 75%.

The assay is the same for the next values; noted with them: read-out: Biochemical assay % inhibition @10 μM.
On to `COc1cccc(F)c1-c1nc(NCc2ccc(-c3nc(C(F)(F)F)cn3C)cc2)c2[nH]cnc2n1` [Example 30, 2-(2-fluoro-6-methoxyphenyl)-N-(4-(1-methyl-4-(trifluoromethyl)-1H-imidazol-2-yl)benzyl)-7H-purin-6-amine], for which the inhibition at 10 µM was more than 75%.
For the molecule `COc1ccncc1-c1nc(NCc2ccc(-c3nc(C(F)(F)F)cn3C)cc2)c2[nH]cnc2n1` [Example 34, 2-(4-methoxypyridin-3-yl)-N-(4-(1-methyl-4-(trifluoromethyl)-1H-imidazol-2-yl)benzyl)-7H-purin-6-amine], the inhibition at 10 µM was more than 75%.
Consider `Cn1cc(C(F)(F)F)nc1-c1ccc(CNc2nc(N3CCOCC3)nc3nc[nH]c23)cc1` [Example 36, N-(4-(1-methyl-4-(trifluoromethyl)-1H-imidazol-2-yl)benzyl)-2-morpholino-7H-purin-6-amine], for which the inhibition at 10 µM was 50 to 75%.
Consider `COc1ncnc(C2CC2)c1-c1nc(NCc2ccc(-c3nc(C(F)(F)F)cn3C)cc2)c2ncn(C)c2n1` [Example 37, 2-(4-cyclopropyl-6-methoxypyrimidin-5-yl)-9-methyl-N-(4-(1-methyl-4-(trifluoromethyl)-1H-imidazol-2-yl)benzyl)-9H-purin-6-amine], for which the inhibition at 10 µM was more than 75%.
